Where “and” joins values, the source holds several entries; their conditions need not be identical. Equal entries are not always repeated. Where two headings read alike, the source gives them in different places.
Assays:
[1] = target: T1, NanoLuc-PLK1 fusion protein (Homo sapiens, UniProt P53350); assay: NanoLuc thermal shift assay; assay type: cell-based; details: compound at 100 μM
T1 construct: NanoLuc fused to the N-termini of full-length human PLK1, PLK2, PLK3, PLK4 or p38α MAPK; expressed in transfected cells; host or cells: HeLa, transient, digitonin-permeabilised
Description: (§1) HeLa cells were transfected with plasmids encoding NanoLuc fused to the N-termini of full-length human PLK1, PLK2, PLK3, PLK4 or p38α MAPK. Twenty-four h after transfection, the thermal stability of the fusion proteins was tested using a modified version of the assay protocol supplied by Promega. Briefly, cells were harvested by tyrpsinisation and centrifugation, counted, and resuspended to 200,000 cells/ml in 3mls of serum-free OptiMEM media. Cells were then permeabilised using with 50ug/ml digitonin in DMSO for 5 min and incubated with test compounds at 100uM, plus protease inhibitor cocktail (Promega G6521), in a final concentration of 5% DMSO for 1 h at 37°C. After incubation, 100 μl/well of cells were aliquoted into a 96-well, thin-walled PCR plate and then heated for 3 minutes using a pre-warmed MJ Tetrad DNA Engine set to run a temperature gradient of 42 to 66°C. The plates were then cooled to room temperature for 10 min, and then 80μl of each sample was transferred to a white-walled 96-well Nunc plate before NanoBRET™ NanoGlo Substrate diluted in Opti-MEM was added. NanoLuc enzyme activity was read out within 10 min using a BMG Clariostar plate reader.
(§2) Nanoluciferase enzyme activity of PLK1- or PLK4-Nanoluc fusion protein was analysed using GraphPad Prism. Data were normalised as follows: (treatment A RLU value at X°C temp/treatment A RLU value at 42°C temp) x 100. Using the Boltzmann sigmoidal equation, a curve was then fitted to the normalised data. From this non-linear fit, a V50 value was generated, which in this context represents the aggregation onset temperature (Tagg), at which 50% of the PLK1- or PLK4-Nanoluc fusion protein has aggregated.

[2] = target: T2, NanoLuc-PLK4 fusion protein (Homo sapiens, UniProt O00444); assay: NanoLuc thermal shift assay; assay type: cell-based; details: compound at 100 μM
T2 construct: NanoLuc fused to the N-termini of full-length human PLK1, PLK2, PLK3, PLK4 or p38α MAPK; expressed in transfected cells; host or cells: HeLa, transient, digitonin-permeabilised
T2 sequence (O00444 1-970): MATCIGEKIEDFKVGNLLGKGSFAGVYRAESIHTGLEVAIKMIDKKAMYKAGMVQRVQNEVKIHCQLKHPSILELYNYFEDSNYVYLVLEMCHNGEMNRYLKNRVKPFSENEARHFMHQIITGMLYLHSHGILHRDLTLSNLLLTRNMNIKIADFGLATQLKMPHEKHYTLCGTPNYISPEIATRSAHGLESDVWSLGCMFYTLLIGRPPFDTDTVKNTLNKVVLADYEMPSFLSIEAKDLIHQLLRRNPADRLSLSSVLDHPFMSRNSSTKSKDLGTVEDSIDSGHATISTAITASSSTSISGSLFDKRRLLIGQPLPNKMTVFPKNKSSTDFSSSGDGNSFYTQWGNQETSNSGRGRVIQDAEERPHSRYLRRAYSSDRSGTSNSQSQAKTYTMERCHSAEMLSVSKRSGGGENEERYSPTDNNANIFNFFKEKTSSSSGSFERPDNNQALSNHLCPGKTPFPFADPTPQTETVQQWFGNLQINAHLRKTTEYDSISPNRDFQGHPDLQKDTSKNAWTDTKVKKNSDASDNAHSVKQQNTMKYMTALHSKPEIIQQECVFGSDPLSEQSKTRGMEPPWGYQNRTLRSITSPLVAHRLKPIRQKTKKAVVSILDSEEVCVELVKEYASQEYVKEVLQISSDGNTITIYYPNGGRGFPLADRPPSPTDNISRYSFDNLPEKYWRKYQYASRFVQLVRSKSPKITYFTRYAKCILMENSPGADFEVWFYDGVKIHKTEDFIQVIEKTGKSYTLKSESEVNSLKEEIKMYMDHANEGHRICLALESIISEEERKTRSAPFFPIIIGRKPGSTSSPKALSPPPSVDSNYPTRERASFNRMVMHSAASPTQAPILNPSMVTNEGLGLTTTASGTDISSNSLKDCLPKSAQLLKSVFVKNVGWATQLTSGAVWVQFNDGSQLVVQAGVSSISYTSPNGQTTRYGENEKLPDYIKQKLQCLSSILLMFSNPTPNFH
Description: as §1, §2

PLK1 PBD = PLK1 PBD (Homo sapiens, UniProt P53350); assay: Fluorescence polarisation (FP) assay, PLK1 PBD; assay type: binding; parameters: PLK1 PBD (aa345-603) 84nM; GST (N, cleaved yes); made in house; host or cells: E. coli C41
Description: Final concentrations of assay components used in binding assays were as follows: TAMRA-labelled consensus PLK1 PBD binding phosphopeptide, 5-TAMRA-MAGPMQS(pThreonine)PLMGAKK-acid 10nM; PLK1 PBD (aa345-603) 84nM (2.5ng/μl). Assays were carried out in PBS (pH 7.4) plus 0.03% tween. DMSO controls were run alongside all experimental compounds and % inhibition normalised to these controls. Compounds were titrated 2 fold from a top concentration of 250μM giving a maximum final concentration of DMSO in the assay of 0.25%; however the assay can tolerate DMSO up to 5%. Compound and PBD protein were incubated together at 22°C for 1 hour prior to addition of the TAMRA labelled binding phosphopeptide. The total assay volume per well was 45μl. All experiments were performed in NBS black 384-well microtiter plates (Corning). Fluorescence Polarisation (FP) was read using a BMG PheraStar plate reader with a 540/590/590nm FP module and unbound 10nm TAMRA-labelled peptide set to a FP value of 35mP.

Chain of PLK1 PBD (P53350 345-603): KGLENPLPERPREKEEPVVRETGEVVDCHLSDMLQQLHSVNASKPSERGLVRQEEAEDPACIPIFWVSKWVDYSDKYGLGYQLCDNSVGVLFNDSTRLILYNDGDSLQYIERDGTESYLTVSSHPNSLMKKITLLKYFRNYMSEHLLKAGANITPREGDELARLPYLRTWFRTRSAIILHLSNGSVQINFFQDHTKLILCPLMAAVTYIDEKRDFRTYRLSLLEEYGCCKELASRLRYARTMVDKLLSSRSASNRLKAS
T1 sequence (P53350 whole entry, the tested form may be a part): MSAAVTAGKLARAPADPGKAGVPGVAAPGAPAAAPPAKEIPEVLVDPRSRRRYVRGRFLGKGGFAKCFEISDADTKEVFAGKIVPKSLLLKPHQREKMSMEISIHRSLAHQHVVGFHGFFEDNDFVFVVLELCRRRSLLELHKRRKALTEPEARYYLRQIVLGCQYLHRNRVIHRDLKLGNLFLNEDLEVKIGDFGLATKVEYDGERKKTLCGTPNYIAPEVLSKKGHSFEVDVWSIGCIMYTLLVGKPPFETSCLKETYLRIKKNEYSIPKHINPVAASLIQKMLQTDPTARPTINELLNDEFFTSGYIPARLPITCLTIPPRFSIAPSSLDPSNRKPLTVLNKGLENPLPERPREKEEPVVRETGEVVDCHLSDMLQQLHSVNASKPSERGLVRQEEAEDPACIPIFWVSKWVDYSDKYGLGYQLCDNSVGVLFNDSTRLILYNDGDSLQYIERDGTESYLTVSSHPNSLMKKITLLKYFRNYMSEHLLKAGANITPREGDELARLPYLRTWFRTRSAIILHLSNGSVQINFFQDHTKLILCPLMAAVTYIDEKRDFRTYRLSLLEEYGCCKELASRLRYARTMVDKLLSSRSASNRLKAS

Row | SMILES | thermal stability of NanoLuc-PLK1 [1] | thermal stability of NanoLuc-PLK4 [2] | IC50 (PLK1 PBD; read-out: IC50, binding of TAMRA-labeled phosphopeptide to PLK1 PBD) | IC50 (PLK1 PBD; IC50, binding of TAMRA-labeled phosphopeptide to PLK1 PBD) [µM]
1 | CN(C)CCNC(=O)c1ccc(-c2ccc(-c3ccc(Cl)cc3)n2-c2ccccc2C(F)(F)F)cc1 [Poloppin-II] | engages | engages | 40.9 µM and 41 µM | 
2 | O=C(O)CCc1ccc(-c2ccc(Br)cc2)n1-c1ccccc1C(F)(F)F [Poloppin] | increases the thermal stability | increases the thermal stability |  | 26.9

Reference: paper PMC5563081, “Modulating Protein-Protein Interactions of the Mitotic Polo-like Kinases to Target Mutant KRAS” (Cell Chemical Biology, 2017)
